The target in assay [1] is T1, human GHS receptor (Homo sapiens, UniProt Q92847). Briefly: h bind IC50 (binding assay, Table 1). The note with it: human receptor; Table 1.
Assay [2] has as its target T1, human GHS receptor. Briefly: Ghrelin IP1 agonist assay (IP1 HTRF). The assay is classed as cell-based. The arrangement: expressed in transfected cells; host or cells: HEK293s. Particulars: for Emax: 2 h, agonist effect as % maximal effect of GHRP-6 (5 μM), read-out: h IP1 ag %; for EC50: HEK293s cells stably expressing human GHS receptor, 2 hours at 37° C., read-out: h IP1 ag EC50. The gist of the method:
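Cells: HEK293s stably expressing human GHS receptor, in stimulation buffer containing 0.02% fatty acid free BSA.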
For orientation: In TR-FRET formats the signal depends on donor and acceptor labels being close together.

T1 sequence (Q92847 whole entry): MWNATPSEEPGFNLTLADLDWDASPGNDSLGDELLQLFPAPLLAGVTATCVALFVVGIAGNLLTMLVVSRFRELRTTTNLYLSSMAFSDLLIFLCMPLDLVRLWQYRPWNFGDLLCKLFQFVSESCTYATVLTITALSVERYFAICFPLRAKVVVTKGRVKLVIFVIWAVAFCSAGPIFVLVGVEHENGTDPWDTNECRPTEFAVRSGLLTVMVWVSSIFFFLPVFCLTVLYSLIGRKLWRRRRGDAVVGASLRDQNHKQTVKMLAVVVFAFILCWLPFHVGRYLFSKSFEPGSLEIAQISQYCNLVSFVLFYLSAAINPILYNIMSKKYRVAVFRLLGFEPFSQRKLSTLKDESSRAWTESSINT

In the case of `CNCCS(=O)(=O)c1ccc2nc(NC(=O)NC(=O)c3ccccc3Cl)sc2c1` [Example 4, 2-Chloro-N-[[6-(2-methylaminoethylsulfonyl)benzothiazol-2-yl]carbamoyl]benzamide], on human GHS receptor [1], the IC50 is 77.3 nM. For the same molecule, at human GHS receptor [2], the Emax is 58.5% and the EC50 was 9.46 nM.
In the same order, the values of `CN(C)CCCS(=O)(=O)c1ccc2nc(NC(=O)NC(=O)c3ccccc3Cl)sc2c1` [Example 202, 2-Chloro-N-[[6-(3-dimethylaminopropylsulfonyl)benzothiazol-2-yl]carbamoyl]benzamide] are 8.7 nM, 51.3% and 13.4 nM.
At human GHS receptor [1], `O=C(NC(=O)c1ccccc1Cl)Nc1nc2ccc(S(=O)(=O)CCN3CCC(F)(F)C3)cc2s1` [Example 21, 2-Chloro-N-[[6-[2-(3,3-difluoropyrrolidin-1-yl)ethylsulfonyl]benzothiazol-2-yl]carbamoyl]benzamide] came in with an IC50 of 1680 nM. For the same molecule, at human GHS receptor [2], the Emax was determined as 16.9% and the EC50 was 221 nM.
In the same order, the values of `CC(C)NCC(C)(C)S(=O)(=O)c1ccc2nc(NC(=O)NC(=O)c3cc(N4CCOCC4)ccc3Cl)sc2c1` [Example 246, 2-chloro-N-(6-(1-(isopropylamino)-2-methylpropan-2-ylsulfonyl)benzo[d]thiazol-2-ylcarbamoyl)-5-morpholino-benzamide] are 2.08 nM, 0% and at least 20000 nM.
Molecule `O=C(NC(=O)c1ccccc1Cl)Nc1nc2ccc(S(=O)(=O)CCCn3ccnc3)cc2s1` [Example 193, 2-Chloro-N-[[6-(3-imidazol-1-ylpropylsulfonyl)benzothiazol-2-yl]carbamoyl]benzamide] yielded an IC50 at human GHS receptor [1] of 25.9 nM. On human GHS receptor [2], the Emax is 30.6% and the EC50 stood at 18.5 nM.
Taken in the same sequence, the figures for `O=C(NC(=O)c1ccccc1Cl)Nc1nc2ccc(S(=O)(=O)[C@H]3CCNC3)cc2s1` [Example 171, 2-Chloro-N-[[6-[(3S)-pyrrolidin-3-yl]sulfonylbenzothiazol-2-yl]carbamoyl]benzamide] were 296 nM, 44% and 18.6 nM.
On human GHS receptor [1], `CS(=O)(=O)N1CCN(CCCS(=O)(=O)c2ccc3nc(NC(=O)NC(=O)c4ccccc4Cl)sc3c2)CC1` [Example 208, 2-Chloro-N-[[6-[3-(4-methylsulfonylpiperazin-1-yl)propylsulfonyl]benzothiazol-2-yl]carbamoyl]benzamide] returned an IC50 of 18.1 nM. Further, at human GHS receptor [2], the Emax was determined as 30.7% and the EC50 stood at 13.5 nM.
Taken in the same sequence, the figures for `O=C(NC(=O)c1cc(-n2cccc2)ccc1Cl)Nc1nc2ccc(S(=O)(=O)[C@H]3CCNC3)cc2s1` [Example 77, 2-Chloro-N-[[6-[(3S)-pyrrolidin-3-yl]sulfonylbenzothiazol-2-yl]carbamoyl]-5-pyrrol-1-yl-benzamide] were 1.7 nM, 0.911% and at least 25000 nM.
In the same order, the values of `CN(C)C1CC(S(=O)(=O)c2ccc3nc(NC(=O)NC(=O)c4ccccc4Cl)sc3c2)C1` (stereo not drawn) [Example 216, 2-Chloro-N-[[6-(3-dimethylaminocyclobutyl)sulfonylbenzothiazol-2-yl]carbamoyl]benzamide] are 36.8 nM, 64.6% and 54 nM.
In the same order, the values of `CC(C)N1CCCC(S(=O)(=O)c2ccc3nc(NC(=O)NC(=O)c4ccccc4Cl)sc3c2)C1` (stereo not drawn) [Example 140, 2-Chloro-N-[[6-[(1-propan-2-yl-3-piperidyl)sulfonyl]benzothiazol-2-yl]carbamoyl]benzamide] are 289 nM, 42.5% and 62 nM.
Regarding `O=C(NC(=O)c1ccccc1Cl)Nc1nc2ccc(S(=O)(=O)Cc3ncc[nH]3)cc2s1` [Example 189, 2-Chloro-N-[[6-(1H-imidazol-2-ylmethylsulfonyl)benzothiazol-2-yl]carbamoyl]benzamide], the concentration for half-maximal inhibition (IC50) at human GHS receptor [1] was 274 nM. Moreover, at human GHS receptor [2], the Emax was determined as 20.4% and the EC50 was found to be 280 nM.
For `CS(=O)(=O)c1ccc2nc(NC(=O)NC(=O)c3cc(N4CCCC4)ccc3Cl)sc2c1` [Example 48, 2-Chloro-5-(1-pyrrolidinyl)-N-(6-(methylsulfonyl)benzothiazol-2-ylcarbamoyl)benzamide], on human GHS receptor [1], the half-maximal inhibitory concentration (IC50) came out at 1.3 nM. Further, on human GHS receptor [2], the Emax came out at 0.32% and the concentration giving a half-maximal response (EC50) is at least 25000 nM.
Taken in the same sequence, the figures for `CS(=O)(=O)c1ccc2nc(NC(=O)NC(=O)c3cccc(F)c3Cl)sc2c1` [Example 110, 2-Chloro-3-fluoro-N-[(6-methylsulfonylbenzothiazol-2-yl)carbamoyl]benzamide] were 392 nM, 15.8% and 91.7 nM.
`CN1CCCN(CCCS(=O)(=O)c2ccc3nc(NC(=O)NC(=O)c4ccccc4Cl)sc3c2)CC1` [Example 204, 2-Chloro-N-[[6-[3-(4-methyl-1,4-diazepan-1-yl)propylsulfonyl]benzothiazol-2-yl]carbamoyl]benzamide] returned an IC50 at human GHS receptor [1] of 1.2 nM. At human GHS receptor [2], the Emax was 36.2% and the half-maximal effective concentration (EC50) came to 6.92 nM.
In the same order, the values of `COc1cc(Cl)c(C(=O)NC(=O)Nc2nc3ccc(S(=O)(=O)C4CCN(C(=O)OC(C)(C)C)CC4)cc3s2)cc1-n1cccn1` [Example 262, tert-butyl4-(2-(3-(2-chloro-4-methoxy-5-(1H-pyrazol-1-yl)benzoyl)ureido)benzo[d]thiazol-6-ylsulfonyl) piperidine-1-carboxylate] are 34.3 nM, 0% and at least 20000 nM.
Taken in the same sequence, the figures for `O=C(NC(=O)c1cc(-n2cccc2)ccc1Cl)Nc1nc2ccc(S(=O)(=O)CCCN3CCNCC3)cc2s1` [Example 73, 2-Chloro-N-[[6-(3-piperazin-1-ylpropylsulfonyl)benzothiazol-2-yl]carbamoyl]-5-pyrrol-1-yl-benzamide] were 1.3 nM, 2.25% and at least 25000 nM.
In the same order, the values of `CN1CCC(Oc2ccc(Cl)c(C(=O)NC(=O)Nc3nc4ccc(S(C)(=O)=O)cc4s3)c2)C1` (stereo not drawn) [Example 250, 2-chloro-5-(1-methylpyrrolidin-3-yloxy)-N-(6-(methylsulfonyl)benzo[d]thiazol-2-ylcarbamoyl) benzamide] are 3780 nM, 6.82% and 5130 nM.
Take `CC(=O)N1CCN(CCCS(=O)(=O)c2ccc3nc(NC(=O)NC(=O)c4ccccc4Cl)sc3c2)CC1` [Example 198, N-[[6-[3-(4-Acetylpiperazin-1-yl)propylsulfonyl]benzothiazol-2-yl]carbamoyl]-2-chloro-benzamide]: the IC50 on human GHS receptor [1] stood at 10.8 nM. For the same molecule, on human GHS receptor [2], the Emax is 32.1% and the EC50 was determined as 11 nM.
In the same order, the values of `CNC1CC(S(=O)(=O)c2ccc3nc(NC(=O)NC(=O)c4ccccc4Cl)sc3c2)C1` (stereo not drawn) [Example 215, 2-Chloro-N-[[6-(3-methylaminocyclobutyl)sulfonylbenzothiazol-2-yl]carbamoyl]benzamide] are 27.2 nM, 50.2% and 23 nM.
Taken in the same sequence, the figures for `CC(C)c1ccccc1C(=O)NC(=O)Nc1nc2ccc(S(C)(=O)=O)cc2s1` [Example 136, N-[(6-Methylsulfonylbenzothiazol-2-yl)carbamoyl]-2-propan-2-yl-benzamide] were 197 nM, 21.5% and 217 nM.

What is called IC50 is the point on the concentration scale where inhibition reaches its midpoint. As a reminder, the EC50 is the concentration at which the effect is half-maximal.

These data come from patent US20120115845A1, “THERAPEUTIC AGENTS” (priority 2007, published 2012).
